# Assay results: patent publication US20160271094A1, “Laquinimod Combination Therapy For Treatment Of Multiple Sclerosis” (priority 2013, published 2016)
# Where a name gives a salt, the structure may show the parent alone.
# Legend:
# Assay type in all cases: in vivo, mouse (C57BL/6)
# MOG induced EAE [1] = assay: Example 1C: suboptimal dose of laquinimod combined with MEF or EMF in MOG induced EAE; conditions: for Group Mean Score / Incidence % inhibition / Incidence Total / Mean Disease Duration / Mean Maximal Score / Mean Onset days / Mortality Total % / GMS Inhibition % / MMS Inhibition %: study interrupted on day 21; for GMS Inhibition % / MMS Inhibition %: vs vehicle
# MOG-induced EAE = assay: Example 1A: laquinimod alone or in combination with DMF in MOG-induced EAE (present tense)
# MOG induced EAE [2] = assay: Example 1B: laquinimod in combination with DMF in MOG-induced EAE; conditions: Day 1 to 30; for % Inhibition 2: according to MMS; for % Inhibition 2 / % Inhibition 1 / % Inhibition 3: vs vehicle; for % Inhibition 1: according to incidence; for % Inhibition 3: activity according to GMS; for GMS value: group mean score; for MMS value: mean maximal score
# [3] = EMF 135 mg/kg gavage twice a day from Day 1
# [4] = EMF 135 mg/kg gavage twice a day from Day 1, listed as EFM
# [5] = MEF 90 mg/kg gavage twice a day from Day 1
# [6] = laquinimod 5 mg/kg/day gavage (AM) from Day 1
# [7] = laquinimod 25 mg/kg/day gavage (AM) from Day 1, positive control
# [8] = laquinimod 5 mg/kg/day gavage qd
# [9] = laquinimod 10 mg/kg/day gavage qd
# [10] = laquinimod 25 mg/kg/day gavage qd
# [11] = DMF 45 mg/kg gavage bid (90 mg/kg/day)
smiles,measurement,setting,value
"CCOC(=O)/C=C/C(=O)OC [EMF, ethyl methyl fumarate]",Group Mean Score,MOG induced EAE [1]; [3],0.51 ± 0.2
same,Incidence % inhibition,MOG induced EAE [1]; [3],46.6%
same,Incidence Total,MOG induced EAE [1]; [3],8/15
same,Mean Disease Duration,MOG induced EAE [1]; [3],3.3 ± 0.9 days
same,Mean Maximal Score,MOG induced EAE [1]; [3],1.2 ± 0.38
same,Mean Onset days,MOG induced EAE [1]; [3],18.4 ± 1.0 days
same,Mortality Total %,MOG induced EAE [1]; [3],0%
same,Incidence % inhibition,MOG induced EAE [1]; [4],46.7%
same,effectiveness in MOG induced EAE (conclusion),MOG induced EAE [1]; EMF at 135 mg/kg BID alone,highly effective
same,GMS Inhibition %,MOG induced EAE [1]; [3],47.7%
same,MMS Inhibition %,MOG induced EAE [1]; [3],36.8%
same,GMS Inhibition %,MOG induced EAE [1]; [4],47.4%
"CCOC(=O)/C=C/C(=O)O [MEF, monoethyl fumarate]",Group Mean Score,MOG induced EAE [1]; [5],1.23 ± 0.2
same,Incidence % inhibition,MOG induced EAE [1]; [5],20%
same,Incidence Total,MOG induced EAE [1]; [5],12/15
same,Mean Disease Duration,MOG induced EAE [1]; [5],7.1 ± 1.0 days
same,Mean Maximal Score,MOG induced EAE [1]; [5],2.3 ± 0.38
same,Mean Onset days,MOG induced EAE [1]; [5],14.7 ± 1.0 days
same,Mortality Total %,MOG induced EAE [1]; [5],0%
same,alleviation of EAE disease signs (conclusion),MOG induced EAE [1]; MEF at 90 mg/kg,not effective
same,GMS Inhibition %,MOG induced EAE [1]; [5],26.8%
same,MMS Inhibition %,MOG induced EAE [1]; [5],−21.1%
same,GMS Inhibition %,"MOG induced EAE [1]; MEF 90 mg/kg gavage twice a day from Day 1, listed as Mono EF",−26.8%
"CCN(C(=O)c1c(O)c2c(Cl)cccc2n(C)c1=O)c1ccccc1 [Laquinimod, laquinimod]",inhibition of disease severity,MOG-induced EAE; laquinimod 0.06 mg/kg oral QD alone,moderately effective
same,Group Mean Score,MOG induced EAE [1]; [6],0.64 ± 0.2
same,Incidence % inhibition,MOG induced EAE [1]; [6],46.7%
same,Incidence Total,MOG induced EAE [1]; [6],8/15
same,Mean Disease Duration,MOG induced EAE [1]; [6],4.0 ± 1.2 days
same,Mean Maximal Score,MOG induced EAE [1]; [6],1.3 ± 0.4
same,Mean Onset days,MOG induced EAE [1]; [6],17.3 ± 1.24 days
same,Mortality Total %,MOG induced EAE [1]; [6],0%
same,Incidence % inhibition,MOG induced EAE [1]; [7],93.3%
same,Incidence Total,MOG induced EAE [1]; [7],1/15
same,Mean Disease Duration,MOG induced EAE [1]; [7],0.3 ± 0.3 days
same,Mean Maximal Score,MOG induced EAE [1]; [7],0.1 ± 0.06
same,Mean Onset days,MOG induced EAE [1]; [7],21.5 ± 0.5 days
same,Mortality Total %,MOG induced EAE [1]; [7],0%
same,EAE clinical signs (conclusion),MOG induced EAE [1]; laquinimod at 25 mg/kg,significantly ameliorated EAE clinical signs
same,efficacy in MOG-induced EAE (conclusion),MOG induced EAE [1]; laquinimod at 5 and 25 mg/kg,dose-dependent efficacy
same,GMS Inhibition %,MOG induced EAE [1]; [6],34.0%
same,MMS Inhibition %,MOG induced EAE [1]; [6],31.6%
same,GMS Inhibition %,MOG induced EAE [1]; [7],97.9%
same,MMS Inhibition %,MOG induced EAE [1]; [7],94.7%
same,% Inhibition 2,MOG induced EAE [2]; [8],40.0%
same,% Inhibition 2,MOG induced EAE [2]; [9],82.9%
same,% Inhibition 2,MOG induced EAE [2]; [10],100.0%
same,% Inhibition 1,MOG induced EAE [2]; [8],33.3%
same,% Inhibition 1,MOG induced EAE [2]; [9],73.3%
same,% Inhibition 1,MOG induced EAE [2]; [10],100.0%
same,% Inhibition 3,MOG induced EAE [2]; [8],61.9%
same,% Inhibition 3,MOG induced EAE [2]; [9],90.5%
same,% Inhibition 3,MOG induced EAE [2]; [10],100%
same,GMS value,MOG induced EAE [2]; [8],0.8 ± 0.7
same,GMS value,MOG induced EAE [2]; [9],0.2 ± 0.5
same,GMS value,MOG induced EAE [2]; [10],0.0 ± 0.0
same,Incidence,MOG induced EAE [2]; [8],10/15
same,Mean Duration,MOG induced EAE [2]; [8],8.0 ± 6.2 days
same,Mean Onset,MOG induced EAE [2]; [8],22.7 ± 6.4 days
same,Mortality,MOG induced EAE [2]; [8],0/15
same,Incidence,MOG induced EAE [2]; [9],4/15
same,Mean Duration,MOG induced EAE [2]; [9],1.8 ± 3.7 days
same,Mean Onset,MOG induced EAE [2]; [9],28.9 ± 3.8 days
same,Mortality,MOG induced EAE [2]; [9],0/15
same,Incidence,MOG induced EAE [2]; [10],0/15
same,Mean Duration,MOG induced EAE [2]; [10],0.0 ± 0.0 days
same,Mean Onset,MOG induced EAE [2]; [10],0.0 ± 0.0 days
same,Mortality,MOG induced EAE [2]; [10],0/15
same,MMS value,MOG induced EAE [2]; [8],2.1 ± 1.7
same,MMS value,MOG induced EAE [2]; [9],0.6 ± 0.2
same,MMS value,MOG induced EAE [2]; [10],0.0 ± 0.0
"COC(=O)/C=C/C(=O)OC [DMF, dimethyl fumarate]",inhibition of disease severity,MOG-induced EAE; DMF 25 mg/kg oral QD alone,moderately effective
same,Incidence,MOG induced EAE [2]; [11],13/15
same,Mean Duration,MOG induced EAE [2]; [11],13.4 ± 6.2 days
same,Mean Onset,MOG induced EAE [2]; [11],17.1 ± 6.3 days
same,Mortality,MOG induced EAE [2]; [11],0/15
same,% Inhibition 2,MOG induced EAE [2]; [11],25.7%
same,% Inhibition 1,MOG induced EAE [2]; [11],13.3%
same,% Inhibition 3,MOG induced EAE [2]; [11],33.3%
same,GMS value,MOG induced EAE [2]; [11],1.4 ± 0.9
same,MMS value,MOG induced EAE [2]; [11],2.6 ± 1.4
